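In this assay, cells in 96-well plates receive the compound at five concentrations for 48 hours. Endpoints are linearly interpolated between the surrounding concentrations. The concentration for 50% growth inhibition is given as GI50.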 The source made the active and inactive calls. Rule as the data show it: active = GI50 up to about 1.1 µM and inactive = higher.
Key:
Experiment in all cases: NCI anticancer screen, dose series, 48 h
CAKI-1 = tested on: CAKI-1
HCT-15 = tested on: HCT-15
SNB-19 = tested on: SNB-19
HT-29 = tested on: HT-29
NCI-H522 = tested on: NCI-H522
HOP-62 = tested on: HOP-62
UACC-257 = tested on: UACC-257
MOLT-4 = tested on: MOLT-4
HCC 2998 = tested on: HCC 2998
HL-60 = tested on: HL-60
U-251 = tested on: U-251
SK-MEL-5 = tested on: SK-MEL-5
HOP-92 = tested on: HOP-92
T47D = tested on: T47D
A549 = tested on: A549
PC-3 = tested on: PC-3
786-0 = tested on: 786-0
RPMI-8226 = tested on: RPMI-8226
TK-10 = tested on: TK-10
OVCAR-8 = tested on: OVCAR-8
MDA-MB-435 = tested on: MDA-MB-435
OVCAR-3 = tested on: OVCAR-3
SF-539 = tested on: SF-539
SR = tested on: SR
SK-MEL-28 = tested on: SK-MEL-28
HCT-116 = tested on: HCT-116
NCI/ADR-RES = tested on: NCI/ADR-RES
Hs-578T = tested on: Hs-578T
DU-145 = tested on: DU-145
MDA-N = tested on: MDA-N
LOX IMVI = tested on: LOX IMVI
BT-549 = tested on: BT-549
A498 = tested on: A498
NCI-H460 = tested on: NCI-H460
M14 = tested on: M14
KM12 = tested on: KM12
SK-MEL-2 = tested on: SK-MEL-2
MCF7 = tested on: MCF7
COLO 205 = tested on: COLO 205
Malme-3M = tested on: Malme-3M
IGROV-1 = tested on: IGROV-1
MDA-MB-231 = tested on: MDA-MB-231
NCI-H23 = tested on: NCI-H23
SF-295 = tested on: SF-295
SF-268 = tested on: SF-268
SN12C = tested on: SN12C
SNB-75 = tested on: SNB-75
SW-620 = tested on: SW-620
ACHN = tested on: ACHN
OVCAR-4 = tested on: OVCAR-4
UACC-62 = tested on: UACC-62
UO-31 = tested on: UO-31
OVCAR-5 = tested on: OVCAR-5
EKVX = tested on: EKVX
RXF 393 = tested on: RXF 393
K562 = tested on: K562
NCI-H226 = tested on: NCI-H226

Q: Which GI50 (CAKI-1) does the source give for `CCOC(=O)C1C(c2ccc(OC)cc2)c2c(nn(-c3ccccc3)c2O)CC1(O)OCC` (stereo not drawn) here?
A: > 100 µM (inactive)

Q: And the GI50 (HCT-15)?
A: 77.4 µM

Q: What about the GI50 (SNB-19) of the same molecule?
A: 10 µM (inactive)

Q: And the GI50 (HT-29)?
A: 27.4 µM (inactive)

Q: What about the GI50 (NCI-H522) of the same molecule?
A: 50.4 µM (inactive)

Q: And the GI50 (HOP-62)?
A: > 100 µM (inactive)

Q: And the GI50 (UACC-257)?
A: 44.6 µM (inactive)

Q: And the GI50 (MOLT-4)?
A: 2.45 µM (inactive)

Q: What about the GI50 (HCC 2998) of the same molecule?
A: > 100 µM (inactive)

Q: And the GI50 (HL-60)?
A: 0.47 µM (active)

Q: What about the GI50 (U-251) of the same molecule?
A: > 100 µM (inactive)

Q: What about the GI50 (SK-MEL-5) of the same molecule?
A: 26.6 µM (inactive)

Q: And the GI50 (HOP-92)?
A: > 100 µM (inactive)

Q: And the GI50 (T47D)?
A: 12.8 µM (inactive)

Q: What about the GI50 (A549) of the same molecule?
A: 24 µM (inactive)

Q: What about the GI50 (PC-3) of the same molecule?
A: 9.31 µM (inactive)

Q: What about the GI50 (786-0) of the same molecule?
A: 63.4 µM (inactive)

Q: What about the GI50 (RPMI-8226) of the same molecule?
A: 2.58 µM (inactive)

Q: And the GI50 (TK-10)?
A: > 100 µM (inactive)

Q: What about the GI50 (OVCAR-8) of the same molecule?
A: > 100 µM (inactive)

Q: And the GI50 (MDA-MB-435)?
A: 4.02 µM (inactive)

Q: What about the GI50 (OVCAR-3) of the same molecule?
A: > 100 µM (inactive)

Q: What about the GI50 (SF-539) of the same molecule?
A: > 100 µM (inactive)

Q: And the GI50 (SR)?
A: 2.17 µM (inactive)

Q: And the GI50 (SK-MEL-28)?
A: > 100 µM (inactive)

Q: What about the GI50 (HCT-116) of the same molecule?
A: 23.7 µM (inactive)

Q: What about the GI50 (NCI/ADR-RES) of the same molecule?
A: > 100 µM (inactive)

Q: And the GI50 (Hs-578T)?
A: > 100 µM (inactive)

Q: What about the GI50 (DU-145) of the same molecule?
A: 44.6 µM (inactive)

Q: And the GI50 (MDA-N)?
A: 8.63 µM (inactive)

Q: What about the GI50 (LOX IMVI) of the same molecule?
A: 0.597 µM (active)

Q: What about the GI50 (BT-549) of the same molecule?
A: > 100 µM (inactive)

Q: And the GI50 (A498)?
A: > 100 µM (inactive)

Q: What about the GI50 (NCI-H460) of the same molecule?
A: 6.75 µM (inactive)

Q: What about the GI50 (M14) of the same molecule?
A: 19.7 µM (inactive)

Q: And the GI50 (KM12)?
A: 3.4 µM (inactive)

Q: And the GI50 (SK-MEL-2)?
A: > 100 µM (inactive)

Q: What about the GI50 (MCF7) of the same molecule?
A: 30.1 µM (inactive)

Q: And the GI50 (COLO 205)?
A: 36.5 µM (inactive)

Q: What about the GI50 (Malme-3M) of the same molecule?
A: 75.5 µM (inactive)

Q: What about the GI50 (IGROV-1) of the same molecule?
A: > 100 µM (inactive)

Q: And the GI50 (MDA-MB-231)?
A: 39.9 µM (inactive)

Q: What about the GI50 (NCI-H23) of the same molecule?
A: > 100 µM (inactive)

Q: What about the GI50 (SF-295) of the same molecule?
A: 1.92 µM (inactive)

Q: What about the GI50 (SF-268) of the same molecule?
A: > 100 µM (inactive)

Q: What about the GI50 (SN12C) of the same molecule?
A: > 100 µM (inactive)

Q: What about the GI50 (SNB-75) of the same molecule?
A: 82.4 µM (inactive)

Q: What about the GI50 (SW-620) of the same molecule?
A: 27.5 µM (inactive)

Q: What about the GI50 (ACHN) of the same molecule?
A: 25.4 µM (inactive)

Q: And the GI50 (OVCAR-4)?
A: > 100 µM (inactive)

Q: What about the GI50 (UACC-62) of the same molecule?
A: 7.67 µM (inactive)

Q: What about the GI50 (UO-31) of the same molecule?
A: 5.46 µM (inactive)

Q: And the GI50 (OVCAR-5)?
A: > 100 µM (inactive)

Q: And the GI50 (EKVX)?
A: 98.9 µM (inactive)

Q: What does the source list for `O=C(O)C(Cc1c[nH]cn1)N1C(=O)c2ccccc2C1=O` (stereo not drawn)?
A: GI50 (CAKI-1): > 100 µM (inactive); GI50 (HCT-15): > 100 µM; GI50 (SNB-19): > 100 µM (inactive); GI50 (HT-29): > 100 µM (inactive); GI50 (NCI-H522): > 100 µM (inactive); GI50 (HOP-62): 12.9 µM (inactive); GI50 (UACC-257): > 100 µM (inactive); GI50 (MOLT-4): > 100 µM (inactive); GI50 (U-251): > 100 µM (inactive); GI50 (SK-MEL-5): > 100 µM (inactive); GI50 (HOP-92): > 100 µM (inactive); GI50 (T47D): > 100 µM (inactive); GI50 (A549): > 100 µM (inactive); GI50 (PC-3): 18.9 µM (inactive); GI50 (786-0): > 100 µM (inactive); GI50 (RPMI-8226): > 100 µM (inactive); GI50 (TK-10): > 100 µM (inactive); GI50 (OVCAR-8): > 100 µM (inactive); GI50 (MDA-MB-435): > 100 µM (inactive); GI50 (OVCAR-3): 50.5 µM (inactive); GI50 (RXF 393): > 100 µM (inactive); GI50 (SR): > 100 µM (inactive); GI50 (SK-MEL-28): > 100 µM (inactive); GI50 (HCT-116): > 100 µM (inactive); GI50 (K562): > 100 µM (inactive); GI50 (NCI/ADR-RES): > 100 µM (inactive); GI50 (Hs-578T): > 100 µM (inactive); GI50 (DU-145): > 100 µM (inactive); GI50 (MDA-N): > 100 µM (inactive); GI50 (LOX IMVI): > 100 µM (inactive); GI50 (BT-549): > 100 µM (inactive); GI50 (A498): > 100 µM (inactive); GI50 (NCI-H226): > 100 µM (inactive); GI50 (NCI-H460): > 100 µM (inactive); GI50 (M14): > 100 µM (inactive); GI50 (KM12): > 100 µM (inactive); GI50 (SK-MEL-2): 6.19 µM (inactive); GI50 (MCF7): > 100 µM (inactive); GI50 (COLO 205): > 100 µM (inactive); GI50 (Malme-3M): 18.9 µM (inactive); GI50 (IGROV-1): > 100 µM (inactive); GI50 (MDA-MB-231): 38 µM (inactive); GI50 (NCI-H23): > 100 µM (inactive); GI50 (SF-295): 30 µM (inactive); GI50 (SF-268): > 100 µM (inactive); GI50 (SN12C): > 100 µM (inactive); GI50 (SNB-75): > 100 µM (inactive); GI50 (SW-620): > 100 µM (inactive); GI50 (ACHN): > 100 µM (inactive); GI50 (OVCAR-4): > 100 µM (inactive); GI50 (UACC-62): > 100 µM (inactive); GI50 (UO-31): > 100 µM (inactive); GI50 (OVCAR-5): > 100 µM (inactive); GI50 (EKVX): > 100 µM (inactive)

Reference: ChEMBL document CHEMBL1201862, “PubChem BioAssay data set” (2004)
